The record followed here is patent US8809356B2, “Inhibitors of NEDD8-activating enzyme” (Millennium Pharmaceuticals, Inc., priority 2011, dated 2014).

Molecules are shown by their SMILES.

The nature of data set [1]: Pharmacokinetic parameters (plasma AUC) after single subcutaneous administration in HCT116 xenograft mice. In kind it is in vivo. Conditions: I-216 at 10 mg/kg, female Ncr nude mice bearing HCT116 tumor xenografts.
A further data set addresses T1, NAE (Homo sapiens, UniProt Q8TBC4).
T1 construct: endogenous in cells; host or cells: HCT116 (ATCC CCL-247) subcutaneous tumour xenografts in female Ncr nude mice
T1 sequence (Q8TBC4 1-463): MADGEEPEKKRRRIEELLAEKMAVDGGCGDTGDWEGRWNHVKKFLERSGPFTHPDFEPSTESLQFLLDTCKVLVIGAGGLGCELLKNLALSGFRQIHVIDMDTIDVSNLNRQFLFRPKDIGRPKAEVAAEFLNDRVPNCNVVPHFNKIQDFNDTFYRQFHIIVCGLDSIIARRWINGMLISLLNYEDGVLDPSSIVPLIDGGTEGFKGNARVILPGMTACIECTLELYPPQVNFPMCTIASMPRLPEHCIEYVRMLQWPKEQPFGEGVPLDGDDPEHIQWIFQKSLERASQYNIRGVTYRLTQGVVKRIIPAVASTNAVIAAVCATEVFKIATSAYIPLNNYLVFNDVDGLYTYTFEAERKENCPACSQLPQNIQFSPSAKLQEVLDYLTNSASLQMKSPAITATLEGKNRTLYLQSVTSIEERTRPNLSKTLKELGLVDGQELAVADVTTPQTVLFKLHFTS
T1 sequence (Q13564 1-534 partner): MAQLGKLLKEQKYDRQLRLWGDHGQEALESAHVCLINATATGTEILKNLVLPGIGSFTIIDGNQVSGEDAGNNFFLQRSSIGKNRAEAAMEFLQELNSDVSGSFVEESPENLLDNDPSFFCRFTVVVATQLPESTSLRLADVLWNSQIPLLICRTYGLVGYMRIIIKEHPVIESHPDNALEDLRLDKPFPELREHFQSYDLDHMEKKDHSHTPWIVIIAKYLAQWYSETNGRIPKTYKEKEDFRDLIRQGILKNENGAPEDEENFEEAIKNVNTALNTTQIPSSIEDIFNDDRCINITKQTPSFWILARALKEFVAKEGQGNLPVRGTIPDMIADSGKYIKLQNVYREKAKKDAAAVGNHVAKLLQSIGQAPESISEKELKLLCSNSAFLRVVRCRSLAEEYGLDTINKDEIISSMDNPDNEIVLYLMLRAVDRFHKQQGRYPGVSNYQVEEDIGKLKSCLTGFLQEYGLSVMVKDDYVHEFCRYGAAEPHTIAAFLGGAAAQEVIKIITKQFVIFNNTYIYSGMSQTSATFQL
The data set can be described thus: In vivo Tumor Pharmacodynamic Model (neddylated cullins in HCT116 tumor xenografts). Also noted: species or system female Ncr nude mice. To be noted: expected from the pharmacodynamic and pharmacokinetic figures (FIGS. 1-3). The protocol: HCT116 tumor cells (2×10^6) (ATCC #CCL-247) in 100 μL phosphate buffered saline were aseptically injected into the subcutaneous space in the right dorsal flank of female Ncr nude mice (age 5-8 weeks, Charles River) using a 26-gauge needle. Beginning on day 7 after inoculation, tumors were measured twice weekly using a vernier caliper. Tumor volumes were calculated using standard procedures (0.5×(length×width^2)). When the tumors reached a volume of approximately 3-700 mm^3 mice were randomized into groups and injected subcutaneously with compound inhibitor (200 μL) at various doses. Tumors were harvested and crushed in Covaris bags and then transferred to glass tubes on dry ice for sonication in the Covaris E200. […] Supernatants were transferred to new tubes and protein concentrations were determined using the Pierce bicinchoninic acid (BCA) reagents and protein standards. […]
For quantitative analysis of neddylated cullins the procedure was as follows: 20 μg of tumor lysate with lithium dodecyl sulfate (LDS) loading buffer and sample reducing agent (Invitrogen NP0007 and NP0004) was loaded onto 4-12% bis-tris gels, […], 10 well gels (Invitrogen NP0315Box). […] Quantitation of signals on Western blots was performed with the Odyssey software.

Take `CO[C@H]1Cc2cc(Cl)ccc2[C@H]1Nc1cc(O[C@@H]2C[C@@H](COS(N)(=O)=O)[C@@H](O)C2)ncn1` [I-216, {(1S,2S,4R)-4-[(6-{[(1R,2S)-5-chloro-2-methoxy-2,3-dihydro-1H-inden-1-yl]amino}pyrimidin-4-yl)oxy]-2-hydroxycyclopentyl}methyl sulfamate]: in data set [1], the “plasma AUC compared with I-115 at 30 mg/kg” value is reported as “comparable to that observed for I-115 administered at 30 mg/kg” and the “plasma AUC compared with I-216 at 30 mg/kg” value is “approximately half the AUC observed for I-216 administered at 30 mg/kg”. For the same compound, at NAE, the “potency as inhibitor of NAE relative to I-115” value was 2- to 3 fold.
